Measured values as given in PMC3028519 (Toxicology and applied pharmacology, 2010).
Where two headings read alike, the source gives them in different places.

Experiments:
Disposition of Hg = details: for renal burden of Hg (total renal mass): HgCl2 0.5 μmol/kg (+1.25 μmol/kg Cys) or CH3HgCl 5 μmol/kg (+12.5 μmol/kg Cys); for administered dose present in blood / renal burden of Hg: rats, strain not stated (discussion); for cortical concentration of Hg, TR− rats compared with corresponding control rats / cortical concentration of Hg, compared with rats of the same strain exposed to HgCl2 or CH3HgCl alone: renal cortex; for distribution of Hg in blood between plasma and cellular components: each group of rats
human MRP2 = human MRP2 (Homo sapiens, UniProt Q92887); type: in vitro ADME; details: 37°C, inside-out Sf9 membrane vesicles
human MRP2, sequence (Q92887 whole entry): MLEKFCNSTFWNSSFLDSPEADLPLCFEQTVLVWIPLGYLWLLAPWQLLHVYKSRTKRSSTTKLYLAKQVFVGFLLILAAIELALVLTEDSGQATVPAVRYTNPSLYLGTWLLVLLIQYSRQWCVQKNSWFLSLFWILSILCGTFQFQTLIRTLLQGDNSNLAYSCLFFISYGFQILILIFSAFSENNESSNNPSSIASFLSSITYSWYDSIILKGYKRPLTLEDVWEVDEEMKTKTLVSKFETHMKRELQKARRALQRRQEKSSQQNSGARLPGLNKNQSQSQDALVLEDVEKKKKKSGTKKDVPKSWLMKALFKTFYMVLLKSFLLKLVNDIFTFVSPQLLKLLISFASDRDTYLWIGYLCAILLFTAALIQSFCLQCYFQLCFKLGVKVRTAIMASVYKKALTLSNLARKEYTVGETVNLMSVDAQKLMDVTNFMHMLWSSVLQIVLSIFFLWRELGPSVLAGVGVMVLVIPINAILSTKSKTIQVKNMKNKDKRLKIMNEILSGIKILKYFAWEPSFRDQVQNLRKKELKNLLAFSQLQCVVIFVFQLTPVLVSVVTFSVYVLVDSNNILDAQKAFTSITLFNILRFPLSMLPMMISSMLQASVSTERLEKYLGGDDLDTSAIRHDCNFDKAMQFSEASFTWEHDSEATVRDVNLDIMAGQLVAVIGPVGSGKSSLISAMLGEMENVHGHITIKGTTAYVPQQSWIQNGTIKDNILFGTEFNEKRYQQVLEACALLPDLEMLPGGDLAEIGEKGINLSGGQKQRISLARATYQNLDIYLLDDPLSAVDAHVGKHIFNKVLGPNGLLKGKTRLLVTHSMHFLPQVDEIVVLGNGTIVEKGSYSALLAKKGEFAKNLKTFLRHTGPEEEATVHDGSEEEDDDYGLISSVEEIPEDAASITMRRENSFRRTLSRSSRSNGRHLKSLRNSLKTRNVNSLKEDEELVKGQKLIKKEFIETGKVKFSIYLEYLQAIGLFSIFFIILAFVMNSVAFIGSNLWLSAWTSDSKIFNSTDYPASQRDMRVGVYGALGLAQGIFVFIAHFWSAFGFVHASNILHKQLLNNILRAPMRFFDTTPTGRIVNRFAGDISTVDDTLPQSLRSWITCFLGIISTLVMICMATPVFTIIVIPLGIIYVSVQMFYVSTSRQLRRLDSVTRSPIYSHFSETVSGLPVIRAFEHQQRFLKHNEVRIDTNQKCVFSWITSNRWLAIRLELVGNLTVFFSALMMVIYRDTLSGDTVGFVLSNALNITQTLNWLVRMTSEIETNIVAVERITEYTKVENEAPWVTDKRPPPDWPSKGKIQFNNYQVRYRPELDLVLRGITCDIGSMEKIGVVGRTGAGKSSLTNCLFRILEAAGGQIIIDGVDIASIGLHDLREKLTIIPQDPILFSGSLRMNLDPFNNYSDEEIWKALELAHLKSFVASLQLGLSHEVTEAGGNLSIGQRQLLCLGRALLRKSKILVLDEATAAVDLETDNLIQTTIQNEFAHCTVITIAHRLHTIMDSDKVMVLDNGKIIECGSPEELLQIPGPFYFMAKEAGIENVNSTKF

[1] = both control and TR− rats, 24 h, data not shown
[2] = control (Wistar) rats, i.v., 24 h

[CH3][Hg][Cl] [CH3HgCl, methylmercuric chloride]
hepatic burden of Hg (Disposition of Hg; TR− rats, i.v., 24 h): about 14 % of the dose
renal burden of Hg (total renal mass) (Disposition of Hg; TR− rats, i.v., 24 h): approximately 5 % of the administered dose
hematological burden of Hg associated with cellular components of blood (Disposition of Hg; [1]): approximately 99%
hematological burden of Hg present in plasma (Disposition of Hg; [1]): ~1%
renal burden of Hg (total renal mass) (Disposition of Hg; [2]): approximately 5 % of the administered dose
urinary excretion of Hg in 24 h (Disposition of Hg; control rats, i.v.): approximately 0.5 % of the administered dose
amount of Hg in blood, TR− rats compared with corresponding control rats (Disposition of Hg; i.v., 24 h): did not significantly alter
hepatic burden of Hg, TR− rats compared with corresponding control rats (Disposition of Hg; i.v., 24 h): two-fold greater
renal burden of Hg, TR− rats compared with corresponding control rats (Disposition of Hg; i.v., 24 h): No significant differences
urinary excretion of Hg, control rats compared with corresponding TR− rats (Disposition of Hg; i.v., 24 h): not significantly different
administered dose present in blood (Disposition of Hg; i.v., 24 h): over 40%
renal burden of Hg (Disposition of Hg; i.v., 24 h): about 5 % of the dose
cortical concentration of Hg, TR− rats compared with corresponding control rats (Disposition of Hg; i.v., 24 h): similar

N[C@@H](CS)C(=O)[O-].N[C@@H](CS)C(=O)[O-].[Hg+2] [Cys-S-Hg-S-Cys, Cysteine-S-conjugate of HgCl2]
uptake into MRP2 vesicles compared with control vesicles (human MRP2; 5 μM mercuric conjugate): significantly greater in MRP2 vesicles than in control vesicles
concentration of Hg in the outer stripe of the outer medulla, compared with rats of the same strain exposed to HgCl2 or CH3HgCl alone (Disposition of Hg; TR− rats, i.v., 24 h): not significantly different
fecal excretion of Hg, compared with rats of the same strain exposed to HgCl2 or CH3HgCl alone (Disposition of Hg; TR− rats, i.v., 24 h): not significantly different
hematological burden of Hg, compared with rats of the same strain exposed to HgCl2 or CH3HgCl alone (Disposition of Hg; TR− rats, i.v., 24 h): significantly lower
hepatic burden of Hg, compared with rats of the same strain exposed to HgCl2 or CH3HgCl alone (Disposition of Hg; TR− rats, i.v., 24 h): not significantly different
renal burden of Hg, compared with rats of the same strain exposed to HgCl2 or CH3HgCl alone (Disposition of Hg; TR− rats, i.v., 24 h): significantly greater than that of corresponding rats treated with HgCl2
urinary excretion of Hg, compared with rats of the same strain exposed to HgCl2 or CH3HgCl alone (Disposition of Hg; TR− rats, i.v., 24 h): not significantly different
cortical concentration of Hg, compared with rats of the same strain exposed to HgCl2 or CH3HgCl alone (Disposition of Hg; TR− rats, i.v., 24 h): significant increase
concentration of Hg in the outer stripe of the outer medulla, compared with rats of the same strain exposed to HgCl2 or CH3HgCl alone (Disposition of Hg; control rats, i.v., 24 h): not significantly different
fecal excretion of Hg, compared with rats of the same strain exposed to HgCl2 or CH3HgCl alone (Disposition of Hg; control rats, i.v., 24 h): significantly greater than that of corresponding rats exposed to HgCl2 alone
hepatic burden of Hg (Disposition of Hg; control rats, i.v., 24 h): ~5 % of the administered dose
hepatic burden of Hg, compared with rats of the same strain exposed to HgCl2 or CH3HgCl alone (Disposition of Hg; control rats, i.v., 24 h): increased significantly
renal burden of Hg, compared with rats of the same strain exposed to HgCl2 or CH3HgCl alone (Disposition of Hg; control rats, i.v., 24 h): significantly greater than that of corresponding rats treated with HgCl2
urinary excretion of Hg, compared with rats of the same strain exposed to HgCl2 or CH3HgCl alone (Disposition of Hg; control rats, i.v., 24 h): not significantly different
cortical concentration of Hg, compared with rats of the same strain exposed to HgCl2 or CH3HgCl alone (Disposition of Hg; control rats, i.v., 24 h): significant increase
distribution of Hg in blood between plasma and cellular components (Disposition of Hg; 24 h, data not shown): distributed evenly between plasma and cellular components
amount of Hg in blood, TR− rats compared with corresponding control rats (Disposition of Hg; i.v., 24 h): slightly, but not significantly, greater
renal burden of Hg, TR− rats compared with corresponding control rats (Disposition of Hg; i.v., 24 h): more Hg was detected in kidneys of TR^− rats
renal burden of Hg (Disposition of Hg; i.v., 24 h): ~70 % of the dose
cortical concentration of Hg, TR− rats compared with corresponding control rats (Disposition of Hg; i.v., 24 h): tended to be greater

[Cl][Hg][Cl] [HgCl2, mercuric chloride]
fecal excretion of Hg after 24 h (Disposition of Hg; TR− rats, i.v.): approximately 1.5 % of the administered dose
urinary excretion of Hg in 24 h (Disposition of Hg; TR− rats, i.v.): about 1.5 % of the administered dose
hepatic burden of Hg (Disposition of Hg; TR− rats, i.v., 24 h): ~6.5 % of the dose
renal burden of Hg (total renal mass) (Disposition of Hg; TR− rats, i.v., 24 h): 60 % of the administered dose
renal burden of Hg (total renal mass) (Disposition of Hg; [2]): approximately 50 % of the administered dose
fecal excretion of Hg after 24 h (Disposition of Hg; control rats, i.v.): approximately 3 % of the administered dose
urinary excretion of Hg in 24 h (Disposition of Hg; control rats, i.v.): approximately 4 % of the administered dose
hepatic burden of Hg (Disposition of Hg; control rats, i.v., 24 h): approximately 3.5 % of the administered dose
distribution of Hg in blood between plasma and cellular components (Disposition of Hg; 24 h, data not shown): distributed evenly between plasma and cellular components
amount of Hg in blood, TR− rats compared with corresponding control rats (Disposition of Hg; i.v., 24 h): significantly greater
renal burden of Hg, TR− rats compared with corresponding control rats (Disposition of Hg; i.v., 24 h): significantly different than that of corresponding control (Wistar) rats
administered dose present in blood (Disposition of Hg; i.v., 24 h): 1-2%
renal burden of Hg (Disposition of Hg; i.v., 24 h): approximately 50 % of the dose
cortical concentration of Hg, TR− rats compared with corresponding control rats (Disposition of Hg; i.v., 24 h): tended to be greater

CCCCC/C=C\C\C=C/C=C/C=C/[C@@H](SC[C@H](NC(=O)CC[C@H](N)C(=O)O)C(=O)NCC(=O)O)[C@@H](O)CCCC(=O)O [LTC4, Leukotriene C4, reference compound]
uptake into MRP2 vesicles compared with control vesicles (human MRP2; 50 nM LTC4, 2.5 min): significantly greater in MRP2 vesicles than in control vesicles

Cysteine-S-conjugate of CH3HgCl [Cys-S-CH3Hg]
uptake into MRP2 vesicles compared with control vesicles (human MRP2; 5 μM mercuric conjugate): significantly greater in MRP2 vesicles than in control vesicles
concentration of Hg in the outer stripe of the outer medulla, compared with rats of the same strain exposed to HgCl2 or CH3HgCl alone (Disposition of Hg; TR− rats, i.v., 24 h): significantly greater
cortical concentration of Hg, compared with rats of the same strain exposed to HgCl2 or CH3HgCl alone (Disposition of Hg; TR− rats, i.v., 24 h): significantly greater
concentration of Hg in the outer stripe of the outer medulla, compared with rats of the same strain exposed to HgCl2 or CH3HgCl alone (Disposition of Hg; control rats, i.v., 24 h): significantly greater
cortical concentration of Hg, compared with rats of the same strain exposed to HgCl2 or CH3HgCl alone (Disposition of Hg; control rats, i.v., 24 h): significantly greater
cortical concentration of Hg, TR− rats compared with corresponding control rats (Disposition of Hg; i.v., 24 h): no significant difference
